Measurements taken from ChEMBL document CHEMBL5463722, “Data for DCP probe BI-5524” (2023).
Blank lines part the entries; values can stand above or below the molecule they belong to. The source made the active and inactive calls. The calls are words filed in the database; no cut-off is given here.

What was measured:
[1] = biological target: 5-hydroxytryptamine receptor 1A (Homo sapiens) (UniProt P08908); assay: 5-HT1A Eurofins-Cerep binding assay; design: ligand concentration 0.5 nM; details: Compound concentration 10.0 uM
[2] = biological target: 5-hydroxytryptamine receptor 2A (Homo sapiens) (UniProt P28223); assay: Agonist activity in the Eurofins Cerep SafetyScreen44 (BI) against 5HT2AH_AGON by Scintillation counting (Cerep_471); details: Compound concentration 10.0 uM
[3] = biological target: 5-hydroxytryptamine receptor 2B (Homo sapiens) (UniProt P41595); assay: 5-HT2B Eurofins-Cerep binding assay; details: Compound concentration 10.0 uM
[4] = biological target: 5-hydroxytryptamine receptor 3A (Homo sapiens) (UniProt P46098); assay: 5-HT3 Eurofins-Cerep binding assay; design: ligand concentration 0.5 nM; details: Compound concentration 10.0 uM
[5] = biological target: Adenosine receptor A2a (Homo sapiens) (UniProt P29274); assay: A2A Eurofins-Cerep binding assay; design: ligand concentration 6 nM
[6] = biological target: Beta-1 adrenergic receptor (Homo sapiens) (UniProt P08588); assay: beta 1 Eurofins-Cerep binding assay; design: ligand concentration 0.3 nM
[7] = biological target: Beta-2 adrenergic receptor (Homo sapiens) (UniProt P07550); assay: beta 2 Eurofins-Cerep binding assay
[8] = species: Rattus norvegicus; assay: Activity against BZD/CENTR/R in the Eurofins Cerep SafetyScreen44 (BI) by Radioactive Assay (Cerep_28); format: protein-complex assay
[9] = biological target: T1, Cholecystokinin receptor type A (Homo sapiens) (UniProt P32238); assay: CCK1 (CCKA) Eurofins-Cerep binding assay; design: ligand concentration 0.08 nM
T1 sequence (whole entry): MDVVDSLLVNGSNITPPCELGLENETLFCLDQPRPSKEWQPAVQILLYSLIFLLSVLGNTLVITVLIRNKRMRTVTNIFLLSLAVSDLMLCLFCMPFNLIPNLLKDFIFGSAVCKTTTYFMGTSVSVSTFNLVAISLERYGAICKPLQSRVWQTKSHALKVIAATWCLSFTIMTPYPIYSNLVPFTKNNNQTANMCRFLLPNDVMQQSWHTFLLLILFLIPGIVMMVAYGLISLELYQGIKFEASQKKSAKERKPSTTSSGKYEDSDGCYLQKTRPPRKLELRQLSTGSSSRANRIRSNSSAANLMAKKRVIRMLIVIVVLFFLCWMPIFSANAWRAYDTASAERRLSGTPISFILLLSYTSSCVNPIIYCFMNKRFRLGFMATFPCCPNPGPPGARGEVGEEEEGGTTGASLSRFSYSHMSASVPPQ

[10] = biological target: D(1A) dopamine receptor (Homo sapiens) (UniProt P21728); assay: D1 Eurofins-Cerep binding assay; design: ligand concentration 0.3 nM; details: Compound concentration 10.0 uM
[11] = biological target: D(2) dopamine receptor (Homo sapiens) (UniProt P14416); assay: Agonist activity in the Eurofins Cerep SafetyScreen44 (BI) against D2SH_AGON by Scintillation counting (Cerep_1322); details: Compound concentration 10.0 uM
[12] = biological target: Sodium-dependent dopamine transporter (Homo sapiens) (UniProt Q01959); assay: dopamine transporter Eurofins-Cerep binding assay; details: Compound concentration 10.0 uM
[13] = biological target: Delta-type opioid receptor (Homo sapiens) (UniProt P41143); assay: delta (DOP) Eurofins-Cerep binding assay; design: ligand concentration 0.5 nM; details: Compound concentration 10.0 uM
[14] = biological target: Endothelin-1 receptor (Homo sapiens) (UniProt P25101); assay: ETA Eurofins-Cerep binding assay; design: ligand concentration 0.03 nM; details: Compound concentration 10.0 uM
[15] = biological target: Glucocorticoid receptor (Homo sapiens) (UniProt P04150); assay: GR Eurofins-Cerep binding assay; details: Compound concentration 10.0 uM
[16] = biological target: Histamine H1 receptor (Homo sapiens) (UniProt P35367); assay: H1 Eurofins-Cerep binding assay; design: ligand concentration 1 nM; details: Compound concentration 10.0 uM
[17] = biological target: Histamine H2 receptor (Homo sapiens) (UniProt P25021); assay: H2 Eurofins-Cerep binding assay; design: ligand concentration 0.075 nM; details: Compound concentration 10.0 uM
[18] = species: Rattus norvegicus; assay: KV channel Eurofins-Cerep binding assay; design: ligand concentration 0.01 nM; details: Compound concentration 10.0 uM
[19] = biological target: Muscarinic acetylcholine receptor M1 (Homo sapiens) (UniProt P11229); assay: M1 Eurofins-Cerep binding assay; design: ligand concentration 2 nM; details: Compound concentration 10.0 uM
[20] = biological target: Muscarinic acetylcholine receptor M2 (Homo sapiens) (UniProt P08172); assay: M2 Eurofins-Cerep binding assay; design: ligand concentration 2 nM; details: Compound concentration 10.0 uM
[21] = biological target: Muscarinic acetylcholine receptor M3 (Homo sapiens) (UniProt P20309); assay: M3 Eurofins-Cerep binding assay; design: ligand concentration 0.2 nM; details: Compound concentration 10.0 uM
[22] = biological target: Mu-type opioid receptor (Homo sapiens) (UniProt P35372); assay: mu (MOP) Eurofins-Cerep binding assay; design: ligand concentration 0.5 nM; details: Compound concentration 10.0 uM
[23] = biological target: Sodium-dependent noradrenaline transporter (Homo sapiens) (UniProt P23975); assay: norepinephrine transporter Eurofins-Cerep binding assay; design: ligand concentration 1 nM; details: Compound concentration 10.0 uM
[24] = biological target: Vasopressin V1a receptor (Homo sapiens) (UniProt P37288); assay: V1a Eurofins-Cerep binding assay; design: ligand concentration 0.3 nM; details: Compound concentration 10.0 uM
[25] = biological target: T2, Neutrophil elastase (Homo sapiens, UniProt P08246); assay: ELANE inhibitor assay (human). (Biochemical assay using purified commercial human ELANE and a fluorescent peptide substrate).
T2 sequence (P08246 whole entry): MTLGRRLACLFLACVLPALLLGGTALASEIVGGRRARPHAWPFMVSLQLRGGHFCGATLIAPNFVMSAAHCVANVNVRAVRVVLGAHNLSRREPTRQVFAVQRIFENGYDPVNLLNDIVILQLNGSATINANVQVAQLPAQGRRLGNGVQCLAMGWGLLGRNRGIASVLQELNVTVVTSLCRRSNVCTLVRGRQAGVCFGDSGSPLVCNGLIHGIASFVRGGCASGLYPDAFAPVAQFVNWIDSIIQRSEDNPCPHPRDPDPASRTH

[26] = biological target: T2, Neutrophil elastase; assay: Inhibition of zymosan-stimulated ELANE activity in human plasma
[27] = biological target: Type-1 angiotensin II receptor (Homo sapiens) (UniProt P30556); assay: AT1 Eurofins-Cerep binding assay
[28] = biological target: B2 bradykinin receptor (Homo sapiens) (UniProt P30411); assay: Activity against B2/HUM in the Eurofins SafetyScreen44 (BI) by Radioactive Assay (Old_Cerep_8)
[29] = biological target: Muscarinic acetylcholine receptor M5 (Homo sapiens) (UniProt P08912); assay: M5 Eurofins-Cerep binding assay; details: Compound concentration 10.0 uM
[30] = biological target: Substance-K receptor (Homo sapiens) (UniProt P21452); assay: Activity against NK2/H in the Eurofins SafetyScreen44 (BI) by Radioactive Assay (Old_Cerep_25); details: Compound concentration 10.0 uM
[31] = biological target: Neuromedin-K receptor (Homo sapiens) (UniProt P29371); assay: Agonist activity in the Eurofins SafetyScreen44 (BI) against NK3/H by Radioligand Binding (Old_Cerep_26); details: Compound concentration 10.0 uM
[32] = biological target: Gastrin/cholecystokinin type B receptor (Homo sapiens) (UniProt P32239); assay: Activity against CCKB/H in the Eurofins SafetyScreen44 (BI) by Radioactive Assay (Old_Cerep_13); details: Compound concentration 10.0 uM
[33] = biological target: C-X-C chemokine receptor type 2 (Homo sapiens) (UniProt P25025); assay: CXCR2 (IL-8B) Eurofins-Cerep binding assay; details: Compound concentration 10.0 uM
[34] = biological target: Caspase-9 (Homo sapiens) (UniProt P55211); details: Compound concentration 1.0 uM
Description: % Enzyme Activity of Caspase 9 in the Reaction Biology protease panel at 10.0 µM

[35] = biological target: Glutamate NMDA receptor (Rattus norvegicus) (UniProt P35439+Q00959+Q00960+Q00961+Q62645+Q8VHN2+Q9R1M7); assay: Inhibitor of NMDA/R in the Eurofins Cerep SafetyScreen44 (BI) by Radioactive Assay (Cerep_66); format: protein-complex assay; details: Compound concentration 10.0 uM
[36] = species: Homo sapiens; assay: Agonist activity in the Eurofins Cerep SafetyScreen44 (BI) against N_NEURO_A4B2 by Radioligand Binding (Cerep_3029); format: protein-complex assay; details: Compound concentration 10.0 uM

Beta-2 adrenergic receptor (Homo sapiens), sequence (P07550 whole entry, looked up): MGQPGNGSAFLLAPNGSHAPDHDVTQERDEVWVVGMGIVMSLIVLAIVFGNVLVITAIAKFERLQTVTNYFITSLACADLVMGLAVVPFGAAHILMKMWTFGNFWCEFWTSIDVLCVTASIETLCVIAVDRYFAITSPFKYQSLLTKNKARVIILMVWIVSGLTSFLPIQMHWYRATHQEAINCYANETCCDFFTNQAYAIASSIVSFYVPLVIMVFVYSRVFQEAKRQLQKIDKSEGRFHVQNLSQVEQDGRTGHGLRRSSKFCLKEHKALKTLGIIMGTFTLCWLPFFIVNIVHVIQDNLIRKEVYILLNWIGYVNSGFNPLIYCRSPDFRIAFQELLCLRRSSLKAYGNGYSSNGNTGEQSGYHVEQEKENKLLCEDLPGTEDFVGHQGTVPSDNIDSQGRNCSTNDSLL
Beta-1 adrenergic receptor (Homo sapiens), sequence (P08588 whole entry, looked up): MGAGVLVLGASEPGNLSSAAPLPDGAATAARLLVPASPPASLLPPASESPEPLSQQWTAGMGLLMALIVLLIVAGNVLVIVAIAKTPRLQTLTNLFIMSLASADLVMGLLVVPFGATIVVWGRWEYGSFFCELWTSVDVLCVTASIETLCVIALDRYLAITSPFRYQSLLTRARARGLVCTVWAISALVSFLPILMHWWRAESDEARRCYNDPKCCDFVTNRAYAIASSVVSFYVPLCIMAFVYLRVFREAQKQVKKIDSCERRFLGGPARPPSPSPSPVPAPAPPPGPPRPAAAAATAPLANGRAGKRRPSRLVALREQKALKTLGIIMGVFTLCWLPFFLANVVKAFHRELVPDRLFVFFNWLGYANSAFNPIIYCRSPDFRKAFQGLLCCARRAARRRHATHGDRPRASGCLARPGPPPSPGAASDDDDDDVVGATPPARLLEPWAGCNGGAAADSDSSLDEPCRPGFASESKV
Adenosine receptor A2a (Homo sapiens), sequence (P29274 whole entry): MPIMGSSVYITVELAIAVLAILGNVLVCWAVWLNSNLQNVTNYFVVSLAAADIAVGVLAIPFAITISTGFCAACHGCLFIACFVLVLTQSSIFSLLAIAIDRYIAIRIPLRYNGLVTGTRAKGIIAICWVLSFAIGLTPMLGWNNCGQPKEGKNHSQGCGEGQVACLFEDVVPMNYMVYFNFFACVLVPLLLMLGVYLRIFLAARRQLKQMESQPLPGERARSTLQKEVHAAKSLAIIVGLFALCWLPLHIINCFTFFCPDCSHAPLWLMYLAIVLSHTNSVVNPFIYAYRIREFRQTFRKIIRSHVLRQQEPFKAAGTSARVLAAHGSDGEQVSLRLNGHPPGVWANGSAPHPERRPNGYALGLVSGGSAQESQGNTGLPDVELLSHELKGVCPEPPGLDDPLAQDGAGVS
Sodium-dependent dopamine transporter (Homo sapiens), sequence (Q01959 whole entry): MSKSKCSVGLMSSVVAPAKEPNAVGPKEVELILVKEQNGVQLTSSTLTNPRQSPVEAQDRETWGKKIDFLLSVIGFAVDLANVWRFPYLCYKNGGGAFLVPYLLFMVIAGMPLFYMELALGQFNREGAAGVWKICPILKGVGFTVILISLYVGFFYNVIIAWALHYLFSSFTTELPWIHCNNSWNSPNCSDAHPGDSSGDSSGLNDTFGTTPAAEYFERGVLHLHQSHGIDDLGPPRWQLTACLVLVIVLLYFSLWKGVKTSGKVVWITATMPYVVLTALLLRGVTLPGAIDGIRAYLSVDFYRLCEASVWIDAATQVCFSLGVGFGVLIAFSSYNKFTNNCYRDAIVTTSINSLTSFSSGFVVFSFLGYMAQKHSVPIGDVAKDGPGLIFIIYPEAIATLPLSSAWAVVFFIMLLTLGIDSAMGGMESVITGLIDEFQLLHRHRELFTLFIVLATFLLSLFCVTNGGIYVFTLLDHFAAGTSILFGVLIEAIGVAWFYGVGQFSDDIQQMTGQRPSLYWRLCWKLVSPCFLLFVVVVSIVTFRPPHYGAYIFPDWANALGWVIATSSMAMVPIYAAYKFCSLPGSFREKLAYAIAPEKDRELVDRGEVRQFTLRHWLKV
5-hydroxytryptamine receptor 2A (Homo sapiens), sequence (P28223 whole entry): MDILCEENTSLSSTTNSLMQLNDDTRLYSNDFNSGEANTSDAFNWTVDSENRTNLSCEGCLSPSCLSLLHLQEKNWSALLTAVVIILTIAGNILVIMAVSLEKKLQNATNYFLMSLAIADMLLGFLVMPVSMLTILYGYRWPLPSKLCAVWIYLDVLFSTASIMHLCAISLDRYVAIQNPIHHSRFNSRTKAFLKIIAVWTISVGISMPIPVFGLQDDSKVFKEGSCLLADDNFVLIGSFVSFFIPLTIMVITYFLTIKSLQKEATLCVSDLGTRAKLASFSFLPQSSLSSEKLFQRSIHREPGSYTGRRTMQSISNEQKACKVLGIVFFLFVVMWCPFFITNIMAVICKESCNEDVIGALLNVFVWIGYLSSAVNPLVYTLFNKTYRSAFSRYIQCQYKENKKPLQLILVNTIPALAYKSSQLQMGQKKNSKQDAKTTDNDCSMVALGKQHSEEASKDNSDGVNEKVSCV
Vasopressin V1a receptor (Homo sapiens), sequence (P37288 whole entry, looked up): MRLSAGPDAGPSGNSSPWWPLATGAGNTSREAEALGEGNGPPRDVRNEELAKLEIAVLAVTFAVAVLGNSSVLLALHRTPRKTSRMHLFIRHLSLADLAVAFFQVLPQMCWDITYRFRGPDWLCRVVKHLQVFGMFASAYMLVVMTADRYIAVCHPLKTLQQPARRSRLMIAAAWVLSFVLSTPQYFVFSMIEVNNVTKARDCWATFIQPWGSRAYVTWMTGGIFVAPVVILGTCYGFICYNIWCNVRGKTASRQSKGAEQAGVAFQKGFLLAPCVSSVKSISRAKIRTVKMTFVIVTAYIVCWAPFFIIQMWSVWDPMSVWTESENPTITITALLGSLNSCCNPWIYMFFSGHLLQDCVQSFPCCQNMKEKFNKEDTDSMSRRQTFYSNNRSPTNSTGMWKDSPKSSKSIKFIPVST
Sodium-dependent noradrenaline transporter (Homo sapiens), sequence (P23975 whole entry): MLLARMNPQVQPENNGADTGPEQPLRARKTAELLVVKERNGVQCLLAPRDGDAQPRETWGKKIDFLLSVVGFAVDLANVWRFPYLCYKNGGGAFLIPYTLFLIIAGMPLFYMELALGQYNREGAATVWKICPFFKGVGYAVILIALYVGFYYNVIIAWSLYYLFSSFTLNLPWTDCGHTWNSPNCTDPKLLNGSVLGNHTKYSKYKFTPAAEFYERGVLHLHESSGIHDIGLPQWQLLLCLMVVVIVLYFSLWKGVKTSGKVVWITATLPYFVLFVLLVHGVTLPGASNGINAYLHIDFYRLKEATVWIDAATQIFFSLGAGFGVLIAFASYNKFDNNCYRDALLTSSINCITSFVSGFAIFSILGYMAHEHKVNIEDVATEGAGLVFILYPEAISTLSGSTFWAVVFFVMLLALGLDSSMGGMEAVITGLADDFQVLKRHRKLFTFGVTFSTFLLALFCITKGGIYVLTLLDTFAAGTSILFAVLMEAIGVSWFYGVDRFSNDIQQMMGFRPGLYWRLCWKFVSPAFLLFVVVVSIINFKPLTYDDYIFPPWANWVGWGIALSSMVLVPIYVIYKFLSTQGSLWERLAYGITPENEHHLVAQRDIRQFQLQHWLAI
D(1A) dopamine receptor (Homo sapiens), sequence (P21728 whole entry): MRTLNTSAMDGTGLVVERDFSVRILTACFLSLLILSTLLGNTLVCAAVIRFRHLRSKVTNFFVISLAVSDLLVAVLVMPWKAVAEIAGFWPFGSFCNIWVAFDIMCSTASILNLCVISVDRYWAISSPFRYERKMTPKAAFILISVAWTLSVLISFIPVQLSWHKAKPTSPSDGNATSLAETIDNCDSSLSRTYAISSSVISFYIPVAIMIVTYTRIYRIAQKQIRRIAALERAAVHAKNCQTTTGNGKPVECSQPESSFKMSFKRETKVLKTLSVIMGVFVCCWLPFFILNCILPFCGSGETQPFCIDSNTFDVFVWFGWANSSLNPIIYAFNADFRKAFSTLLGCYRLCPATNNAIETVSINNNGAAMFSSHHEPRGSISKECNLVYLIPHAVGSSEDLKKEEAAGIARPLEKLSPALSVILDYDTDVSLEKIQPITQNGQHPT
D(2) dopamine receptor (Homo sapiens), sequence (P14416 whole entry): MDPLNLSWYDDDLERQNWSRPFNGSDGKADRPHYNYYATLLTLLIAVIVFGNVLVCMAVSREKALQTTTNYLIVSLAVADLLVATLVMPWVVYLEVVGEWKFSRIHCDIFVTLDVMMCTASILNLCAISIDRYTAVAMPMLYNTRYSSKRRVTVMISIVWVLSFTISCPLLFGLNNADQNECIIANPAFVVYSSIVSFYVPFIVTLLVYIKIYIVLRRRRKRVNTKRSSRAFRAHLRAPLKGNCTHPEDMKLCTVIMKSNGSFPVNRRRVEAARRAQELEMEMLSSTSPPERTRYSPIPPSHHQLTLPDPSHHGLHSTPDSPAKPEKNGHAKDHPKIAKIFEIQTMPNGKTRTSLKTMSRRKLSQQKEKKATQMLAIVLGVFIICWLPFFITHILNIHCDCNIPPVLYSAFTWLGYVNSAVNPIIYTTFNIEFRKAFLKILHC
Histamine H2 receptor (Homo sapiens), sequence (P25021 whole entry): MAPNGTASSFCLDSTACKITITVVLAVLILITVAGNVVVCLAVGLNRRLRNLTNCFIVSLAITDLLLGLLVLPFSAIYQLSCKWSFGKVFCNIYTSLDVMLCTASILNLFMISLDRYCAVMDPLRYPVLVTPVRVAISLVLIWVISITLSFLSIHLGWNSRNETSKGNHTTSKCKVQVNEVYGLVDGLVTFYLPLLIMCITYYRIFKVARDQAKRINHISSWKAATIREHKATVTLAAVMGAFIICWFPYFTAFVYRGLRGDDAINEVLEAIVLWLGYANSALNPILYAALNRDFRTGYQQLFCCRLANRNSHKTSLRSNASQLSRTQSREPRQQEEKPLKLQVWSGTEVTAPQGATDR

residual activity [1]: 72% | residual activity [3]: 130% | residual activity [4]: 108% | residual activity ([5]; Compound concentration 10.0 uM): 100% | residual activity ([5]; Compound concentration 30.0 uM): 83% | residual activity ([6]; Compound concentration 10.0 uM): 100% | residual activity ([6]; Compound concentration 30.0 uM): 100% | residual activity ([7]; Compound concentration 10.0 uM): 87% | residual activity ([7]; Compound concentration 30.0 uM): 92% | residual activity ([9]; Compound concentration 10.0 uM): 89% | residual activity ([9]; Compound concentration 30.0 uM): 89% | residual activity [10]: 96% | residual activity [12]: 110% | residual activity [13]: 101% | residual activity [14]: 99% | residual activity [15]: 107% | residual activity [16]: 108% | residual activity [17]: 114% | residual activity [18]: 102% | residual activity [19]: 103% | residual activity [20]: 121% | residual activity [21]: 84% | residual activity [22]: 82% | residual activity [23]: 98% | residual activity [24]: 102% | IC50 [25]: 0.5 nM (active) | IC50 [26]: 1.2 nM (active) | residual activity ([27]; Compound concentration 10.0 uM): 116% | residual activity ([27]; Compound concentration 30.0 uM): 92% | residual activity [29]: 92% | residual activity [33]: 105% | % Enzyme Activity (relative to DMSO controls, average n=2) [34]: 98.8%
SMILES: CC(C)(O)CNC(=O)N1C(=O)N(c2cccc(C(F)(F)F)c2)C2=C(C(=O)CC2)[C@H]1c1ccc(C#N)cc1
residual activity [2]: 69% | residual activity ([8]; Compound concentration 10.0 uM): 119% | residual activity ([8]; Compound concentration 30.0 uM): 116% | residual activity [11]: 89% | residual activity ([28]; Compound concentration 10.0 uM): 107% | residual activity ([28]; Compound concentration 30.0 uM): 97% | residual activity [30]: 103% | residual activity [31]: 102% | residual activity [32]: 106%

residual activity [1]: 91% | residual activity [3]: 97% | residual activity [4]: 81% | residual activity ([5]; Compound concentration 10.0 uM): 109% | residual activity ([6]; Compound concentration 10.0 uM): 89% | residual activity ([7]; Compound concentration 10.0 uM): 101% | residual activity ([9]; Compound concentration 10.0 uM): 97% | residual activity [10]: 100% | residual activity [12]: 98% | residual activity [13]: 100% | residual activity [14]: 95% | residual activity [15]: 96% | residual activity [16]: 101% | residual activity [17]: 105% | residual activity [18]: 101% | residual activity [19]: 114% | residual activity [20]: 103% | residual activity [21]: 95% | residual activity [22]: 104% | residual activity [23]: 95% | residual activity [24]: 99% | IC50 [25]: 41 nM (not active) | IC50 [26]: 492 nM (not active) | % Enzyme Activity (relative to DMSO controls, average n=2) [34]: 92.6%
SMILES: CC(C)(O)CNC(=O)N1C(=O)N(c2cccc(C(F)(F)F)c2)C2=C(C(=O)CC2)[C@@H]1c1ccc(C#N)cc1
residual activity [2]: 111% | residual activity ([8]; Compound concentration 10.0 uM): 101% | residual activity [11]: 99% | residual activity [35]: 96% | residual activity [36]: 115%
